Laboratory results from patent US20230127944A1, “BROAD-SPECTRUM CARBAPENEMS” (priority 2019, published 2023).

Tested on: E. coli ATCC 25922 (wild-type/QC strain)
Experiment: broth microdilution MIC assay, E. coli 25922
Format: cell-based
Conditions: Escherichia coli, ATCC25922; read-out: MIC, E. coli 25922
Outline: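 Steps: ≥5 colonies into cation-supplemented MH broth, shaken 3-5 h at 37° C; OD600-adjusted inoculum added to 2-fold compound dilutions (5×10^5 CFU/mL final); 16-20 h incubation at 37° C; visual MIC endpoint (no growth).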

Q: For `C[C@@H](O)[C@H]1C(=O)N2C(C(=O)O)=C(S[C@@H]3CCN(C[C@H]4CC[C@H](NC(=N)N)CC4)C3)[C@H](C)[C@H]12` [Example 28, (4R,5S,6S)-3-(((R)-1-(((1R,4R)-4-guanidinocyclohexyl)methyl)pyrrolidin-3-yl)thio)-6-((R)-1-hydroxyethyl)-4-methyl-7-oxo-1-azabicyclo[3.2.0]hept-2-ene-2-carboxylic acid], which MIC is on record?
A: < 1 µg/mL
